Data: patent publication US20250382332A1, “NOVEL ALPHA-FACTOR BASED PEPTIDES WITH ANTIFUNGAL ACTIVITY” (INVAIO SCIENCES, INC., priority 2024, published 2025)
Peptide text beside a SMILES is read from it.

System: Botrytis cinerea (B05.10)
Test: Resazurin antifungal assay of 180 alpha-factor peptide variants towards Botrytis (Example 2)
Type: cell-based
Set-up: key to active against Botrytis at 15 μM / active against Botrytis at 10 μM: Peptides that showed greater than 90% inhibition were considered active against Botrytis
Settings: for Inhibition at 50 μM / Inhibition at 100 μM / Inhibition at 10 μM / Inhibition at 15 μM / Inhibition at 20 μM: % inhibition of fungal growth, Botrytis conidia, resazurin; for Inhibition at 50 μM: peptide 50 μM; for Inhibition at 100 μM: peptide 100 μM; for Inhibition at 10 μM: peptide 10 μM; for Inhibition at 20 μM: peptide 20 μM
How it was run: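 B. cinerea B05.10 conidia (5000/well) were exposed to peptides at 100, 50, 20, 15 and 10 μM final for 24 h at 20° C. Resazurin was then added and fluorescence read at 570/620 nm. Percent growth inhibition was calculated against conidia-only wells, with four technical replicates.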

Row | SMILES | Inhibition at 50 μM | Inhibition at 100 μM | Inhibition at 10 μM | Inhibition at 15 μM (peptide 15 μM) | Inhibition at 20 μM | active against Botrytis at 15 μM (peptide 15 μM)
1 | CC[C@H](C)[C@H](NC(=O)[C@H](Cc1c[nH]c2ccccc12)NC(=O)[C@H](CCC(=O)O)NC(=O)[C@@H]1CCCN1)C(=O)N[C@@H](CCC(N)=O)C(=O)N[C@@H](CC(C)C)C(=O)N[C@@H](CCCCN)C(=O)N[C@H](C(=O)NCC(=O)N[C@@H](CCSC)C(=O)N1CCC[C@H]1C(=O)N[C@@H](CCSC)C(=O)N[C@@H](Cc1ccc(O)cc1)C(=O)O)[C@@H](C)O [compound 40] (H-PEWIQLKTGMPMY-OH; N-terminus and C-terminus assumed) | <90% | <90% |  |  |  | 
2 | CSCC[C@H](NC(=O)[C@@H]1CCCN1C(=O)[C@H](CCC(N)=O)NC(=O)CNC(=O)[C@@H]1CCCN1C(=O)[C@H](CCCCN)NC(=O)[C@H](Cc1ccccc1)NC(=O)[C@H](CC(N)=O)NC(=O)[C@H](CC(C)C)NC(=O)[C@H](CC(C)C)NC(=O)[C@H](Cc1c[nH]cn1)NC(=O)[C@@H]1CCCN1)C(=O)N[C@@H](Cc1ccc(O)cc1)C(=O)O [compound 41] (H-PHLLNFKPGQPMY-OH; N-terminus and C-terminus assumed) | <90% | <90% |  |  |  | 
3 | CSCC[C@H](NC(=O)[C@@H]1CCCN1C(=O)[C@H](CCC(N)=O)NC(=O)CNC(=O)[C@H](CO)NC(=O)[C@H](Cc1c[nH]c2ccccc12)NC(=O)[C@H](CC(C)C)NC(=O)[C@H](CCC(N)=O)NC(=O)CNC(=O)[C@H](CO)NC(=O)[C@H](Cc1c[nH]cn1)NC(=O)[C@@H]1CCCN1)C(=O)N[C@@H](Cc1ccc(O)cc1)C(=O)O [compound 42] (H-PHSGQLWSGQPMY-OH; N-terminus and C-terminus assumed) | <90% | <90% |  |  |  | 
4 | CSCC[C@H](NC(=O)[C@@H]1CCCN1C(=O)[C@H](CCC(N)=O)NC(=O)CNC(=O)[C@H](CC(C)C)NC(=O)[C@H](CCCCN)NC(=O)[C@H](Cc1ccccc1)NC(=O)[C@H](CCC(N)=O)NC(=O)CNC(=O)[C@H](Cc1c[nH]c2ccccc12)NC(=O)[C@H](Cc1c[nH]cn1)NC(=O)[C@@H]1CCCN1)C(=O)N[C@@H](Cc1ccc(O)cc1)C(=O)O [compound 43] (H-PHWGQFKLGQPMY-OH; N-terminus and C-terminus assumed) | <90% | <90% |  |  |  | 
5 | CSCC[C@H](NC(=O)CNC(=O)[C@H](CCC(N)=O)NC(=O)CNC(=O)[C@@H](NC(=O)[C@H](CCCCN)NC(=O)[C@H](CC(C)C)NC(=O)[C@H](CC(N)=O)NC(=O)[C@@H](NC(=O)[C@H](Cc1c[nH]c2ccccc12)NC(=O)[C@H](Cc1c[nH]cn1)NC(=O)[C@@H]1CCCN1)C(C)C)[C@@H](C)O)C(=O)N[C@@H](Cc1ccc(O)cc1)C(=O)O [compound 44] (H-PHWVNLKTGQGMY-OH; N-terminus and C-terminus assumed) | <90% | <90% |  |  |  | 
6 | CSCC[C@H](NC(=O)[C@H](CO)NC(=O)[C@H](CCC(N)=O)NC(=O)CNC(=O)[C@@H]1CCCN1C(=O)[C@H](CCCCN)NC(=O)[C@H](Cc1ccccc1)NC(=O)[C@H](CCC(N)=O)NC(=O)[C@H](CC(C)C)NC(=O)CNC(=O)[C@@H](NC(=O)[C@@H]1CCCN1)[C@@H](C)O)C(=O)N[C@@H](Cc1ccc(O)cc1)C(=O)O [compound 45] (H-PTGLQFKPGQSMY-OH; N-terminus and C-terminus assumed) | <90% | <90% |  |  |  | 
7 | CSCC[C@H](NC(=O)[C@@H]1CCCN1C(=O)[C@H](CCC(N)=O)NC(=O)CNC(=O)[C@@H](NC(=O)[C@H](CC(N)=O)NC(=O)[C@H](CC(C)C)NC(=O)[C@H](CO)NC(=O)[C@H](CC(C)C)NC(=O)[C@H](Cc1c[nH]c2ccccc12)NC(=O)[C@H](Cc1c[nH]cn1)NC(=O)[C@@H](N)Cc1c[nH]c2ccccc12)[C@@H](C)O)C(=O)N[C@@H](Cc1ccc(O)cc1)C(=O)O [compound 46] (H-WHWLSLNTGQPMY-OH; N-terminus and C-terminus assumed) | <90% | 97.03% |  |  |  | 
8 | CSCC[C@H](NC(=O)[C@@H]1CCCN1C(=O)[C@H](CCC(N)=O)NC(=O)CNC(=O)[C@@H]1CCCN1C(=O)[C@H](Cc1c[nH]c2ccccc12)NC(=O)[C@H](CC(C)C)NC(=O)[C@H](CCC(=O)O)NC(=O)[C@H](CC(C)C)NC(=O)[C@H](CC(=O)O)NC(=O)[C@H](Cc1c[nH]cn1)NC(=O)[C@@H](N)CCCCN)C(=O)N[C@@H](Cc1ccc(O)cc1)C(=O)O [compound 47] (H-KHDLELWPGQPMY-OH; N-terminus and C-terminus assumed) | <90% | <90% |  |  |  | 
9 | CSCC[C@H](NC(=O)[C@@H]1CCCN1C(=O)[C@H](CCC(N)=O)NC(=O)CNC(=O)[C@@H]1CCCN1C(=O)[C@H](CCCCN)NC(=O)[C@H](CC(C)C)NC(=O)[C@H](C)NC(=O)[C@H](CC(C)C)NC(=O)CNC(=O)CNC(=O)[C@@H](N)Cc1c[nH]c2ccccc12)C(=O)N[C@@H](Cc1ccc(O)cc1)C(=O)O [compound 48] (H-WGGLALKPGQPMY-OH; N-terminus and C-terminus assumed) | <90% | <90% |  |  |  | 
10 | CSCC[C@H](NC(=O)[C@@H]1CCCN1C(=O)[C@H](CCC(N)=O)NC(=O)CNC(=O)[C@@H]1CCCN1C(=O)[C@H](Cc1ccc(O)cc1)NC(=O)[C@H](CC(C)C)NC(=O)[C@H](CCCCN)NC(=O)[C@H](CC(C)C)NC(=O)[C@H](Cc1c[nH]c2ccccc12)NC(=O)[C@H](CCC(=O)O)NC(=O)[C@@H]1CCCN1)C(=O)N[C@@H](Cc1ccc(O)cc1)C(=O)O [compound 49] (H-PEWLKLYPGQPMY-OH; N-terminus and C-terminus assumed) | <90% | <90% |  |  |  | 
11 | CSCC[C@H](NC(=O)[C@H](CO)NC(=O)[C@H](CO)NC(=O)CNC(=O)[C@@H]1CCCN1C(=O)[C@H](CCCCN)NC(=O)[C@H](CC(C)C)NC(=O)[C@H](CCC(N)=O)NC(=O)[C@H](CC(C)C)NC(=O)[C@@H](NC(=O)[C@H](CCCNC(=N)N)NC(=O)[C@@H](N)Cc1c[nH]c2ccccc12)C(C)C)C(=O)N[C@@H](Cc1ccc(O)cc1)C(=O)O [compound 50] (H-WRVLQLKPGSSMY-OH; N-terminus and C-terminus assumed) | <90% | <90% |  |  |  | 
12 | CC[C@H](C)[C@H](NC(=O)[C@H](CCCNC(=N)N)NC(=O)[C@@H](NC(=O)[C@H](Cc1c[nH]c2ccccc12)NC(=O)[C@H](Cc1c[nH]cn1)NC(=O)[C@@H](N)Cc1c[nH]c2ccccc12)C(C)C)C(=O)N[C@@H](Cc1c[nH]c2ccccc12)C(=O)N1CCC[C@H]1C(=O)NCC(=O)N[C@@H](CCC(N)=O)C(=O)N1CCC[C@H]1C(=O)N[C@@H](CCSC)C(=O)N[C@@H](Cc1ccc(O)cc1)C(=O)O [compound 51] (H-WHWVRIWPGQPMY-OH; N-terminus and C-terminus assumed) | 100% | 100% | <90% | <90% | 97.13% | 
13 | CC[C@H](C)[C@H](NC(=O)[C@H](CCCNC(=N)N)NC(=O)[C@H](CC(C)C)NC(=O)[C@H](Cc1c[nH]c2ccccc12)NC(=O)[C@H](Cc1c[nH]cn1)NC(=O)[C@@H](N)CCCCN)C(=O)N[C@@H](CCCCN)C(=O)N[C@@H](Cc1c[nH]c2ccccc12)C(=O)NCC(=O)N[C@@H](CCC(=O)O)C(=O)N1CCC[C@H]1C(=O)N[C@@H](CCSC)C(=O)N[C@@H](Cc1ccc(O)cc1)C(=O)O [compound 52] (H-KHWLRIKWGEPMY-OH; N-terminus and C-terminus assumed) | 100% | 100% | <90% | 97.66% | 100% | active
14 | CSCC[C@H](NC(=O)[C@@H]1CCCN1C(=O)[C@H](CCC(N)=O)NC(=O)CNC(=O)[C@@H](NC(=O)[C@H](CCCCN)NC(=O)[C@H](CC(C)C)NC(=O)[C@H](CCCNC(=N)N)NC(=O)[C@@H](NC(=O)[C@H](Cc1c[nH]c2ccccc12)NC(=O)[C@H](CCCCN)NC(=O)[C@@H](N)Cc1c[nH]c2ccccc12)C(C)C)[C@@H](C)O)C(=O)N[C@@H](Cc1ccc(O)cc1)C(=O)O [compound 53] (H-WKWVRLKTGQPMY-OH; N-terminus and C-terminus assumed) | 100% | 100% | <90% | <90% | 100% | 
15 | CC[C@H](C)[C@H](NC(=O)[C@H](CCSC)NC(=O)[C@H](Cc1c[nH]cn1)NC(=O)[C@@H](N)CCCCN)C(=O)N[C@@H](CCC(N)=O)C(=O)N[C@@H](CC(C)C)C(=O)N[C@@H](Cc1ccc(O)cc1)C(=O)N[C@@H](Cc1c[nH]c2ccccc12)C(=O)NCC(=O)N[C@@H](CCC(N)=O)C(=O)N1CCC[C@H]1C(=O)N[C@@H](CCSC)C(=O)N[C@@H](Cc1ccc(O)cc1)C(=O)O [compound 54] (H-KHMIQLYWGQPMY-OH; N-terminus and C-terminus assumed) | 100% | 100% | <90% | <90% | 93.21% | 
16 | CSCC[C@H](NC(=O)CNC(=O)[C@H](CO)NC(=O)CNC(=O)[C@@H]1CCCN1C(=O)[C@H](CCCCN)NC(=O)[C@H](CC(C)C)NC(=O)[C@H](CCCNC(=N)N)NC(=O)[C@H](CC(C)C)NC(=O)[C@H](Cc1ccc(O)cc1)NC(=O)[C@H](CCCNC(=N)N)NC(=O)[C@@H](N)Cc1c[nH]c2ccccc12)C(=O)N[C@@H](Cc1ccc(O)cc1)C(=O)O [compound 55] (H-WRYLRLKPGSGMY-OH; N-terminus and C-terminus assumed) | 100% | 100% | <90% | <90% | 99.43% | 
